In patent US9328122B2, “7-substituted Hanfangichin B derivative, and preparation method and use thereof” (HANGZHOU BENSHENG PHARMACEUTICAL CO., LTD., priority 2012, dated 2016):
In brackets after ≈: the same amount, converted by molar mass.

Legend:
[1] = test system: K562/ADR (K562adr, drug-resistant chronic myeloid leukemia) cells; assay: MTT cell growth inhibition, leukemia cells; format: cell-based; conditions: Homo sapiens, K562/ADR, 72 h, MTT; for IC50: read-out: IC50; for IC90: read-out: IC90
Procedure, shortened: (§1)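 Growth inhibition is assessed by MTT after leukemia cells, plated at 6000 per well in RPMI-1640 containing 10% fetal bovine serum, are exposed for 72 hours to graded compound concentrations added the day after plating.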

[2] = test system: NB4 (acute promyelocytic leukemia) cells; assay: MTT cell growth inhibition, leukemia cells; format: cell-based; conditions: Homo sapiens, NB4, 72 h, MTT; for IC50: read-out: IC50; for IC90: read-out: IC90
Procedure, shortened: as §1

[3] = test system: Hep G2 (human liver cancer) cells; assay: MTT cell growth inhibition, solid tumor cells; format: cell-based; conditions: for IC50 / IC90: Homo sapiens, HepG2, Hep G2, 72 h, MTT; for IC50: read-out: IC50; for IC90: read-out: IC90
Procedure, shortened: (§2)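 Exposure lasted 72 h, following 24 h growth of 6000 cells/well in DMEM high glucose containing 10% FBS at 37 °C in 5% CO2; endpoint was MTT-based viable cell concentration across tested compound concentrations.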

[4] = test system: U87-MG (malignant glioma) cells; assay: MTT cell growth inhibition, solid tumor cells; format: cell-based; conditions: Homo sapiens, U-87 MG, U87-MG, 72 h, MTT; for IC50: read-out: IC50; for IC90: read-out: IC90
Procedure, shortened: as §2

[5] = test system: MGC-803 (human gastric cancer) cells; assay: MTT cell growth inhibition, solid tumor cells; format: cell-based; conditions: MGC-803, 72 h, MTT; for IC50: read-out: IC50; for IC90: read-out: IC90
Procedure, shortened: as §2

[6] = test system: A549 (human lung cancer) cells; assay: MTT cell growth inhibition, solid tumor cells; format: cell-based; conditions: Homo sapiens, A549, 72 h, MTT; for IC50: read-out: IC50; for IC90: read-out: IC90
Procedure, shortened: as §2

[7] = test system: RKO (human colon adenocarcinoma) cells; assay: MTT cell growth inhibition, solid tumor cells; format: cell-based; conditions: Homo sapiens, RKO, 72 h, MTT; for IC50: read-out: IC50; for IC90: read-out: IC90
Procedure, shortened: as §2

[8] = test system: Becap-37 (human breast cancer) cells; assay: MTT cell growth inhibition, solid tumor cells; format: cell-based; conditions: for IC50 / IC90: Homo sapiens, Becap-37, 72 h, MTT; for IC50: read-out: IC50; for IC90: read-out: IC90
Procedure, shortened: as §2

[9] = test system: Hela (human cervical cancer) cells; assay: MTT cell growth inhibition, solid tumor cells; format: cell-based; conditions: Homo sapiens, Hela, 72 h, MTT; for IC50: read-out: IC50; for IC90: read-out: IC90
Procedure, shortened: as §2

[10] = test system: MG-63 (osteosarcoma) cells; assay: MTT cell growth inhibition, solid tumor cells; format: cell-based; conditions: Homo sapiens, MG-63, 72 h, MTT; for IC50: read-out: IC50; for IC90: read-out: IC90
Procedure, shortened: as §2

[11] = test system: Hep-2 (laryngeal carcinoma) cells; assay: MTT cell growth inhibition, solid tumor cells; format: cell-based; conditions: Homo sapiens, Hep-2, 72 h, MTT; for IC50: read-out: IC50; for IC90: read-out: IC90
Procedure, shortened: as §2

[12] = test system: tumor; assay: Antitumor activity compared with fangchinoline, overall statement; format: cell-based; conditions: tumor type not specified
[13] = test system: RPMI 8226 (multiple myeloma) cells; assay: MTT cell growth inhibition, multiple myeloma cells; format: cell-based, human; conditions: for IC50 / IC90: Homo sapiens, RPMI 8226, 72 h, MTT; for IC50: read-out: IC50; for IC90: read-out: IC90
Procedure, shortened: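 RPMI 8226 myeloma cells, 6000 per well in RPMI-1640 with 10% FBS, were dosed with fangchinoline derivatives at several concentrations the day after seeding. Incubation ran 72 h at 37° C in 5% CO2, then viable cells were measured by MTT.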

[14] = test system: CNE (nasopharyngeal carcinoma) cells; assay: MTT cell growth inhibition, solid tumor cells; format: cell-based, human; conditions: Homo sapiens, CNE, 72 h, MTT; for IC50: read-out: IC50; for IC90: read-out: IC90
Procedure, shortened: as §2

[15] = test system: SK-OV-3 (ovarian cancer) cells; assay: MTT cell growth inhibition, solid tumor cells; format: cell-based, human; conditions: Homo sapiens, SK-OV-3, 72 h, MTT; for IC50: read-out: IC50; for IC90: read-out: IC90
Procedure, shortened: as §2

[16] = test system: PANC-1 (pancreatic cancer) cells; assay: MTT cell growth inhibition, solid tumor cells; format: cell-based, human; conditions: for IC50 / IC90: Homo sapiens, PANC-1, 72 h, MTT; for IC50: read-out: IC50; for IC90: read-out: IC90
Procedure, shortened: as §2

[17] = test system: PC-3 (prostate cancer) cells; assay: MTT cell growth inhibition, solid tumor cells; format: cell-based, human; conditions: Homo sapiens, PC-3, 72 h, MTT; for IC50: read-out: IC50; for IC90: read-out: IC90
Procedure, shortened: as §2

[18] = test system: CaEs-17 (esophageal cancer) cells; assay: MTT cell growth inhibition, solid tumor cells; format: cell-based, human; conditions: Homo sapiens, CaEs17, CaEs-17, 72 h, MTT; for IC50: read-out: IC50; for IC90: read-out: IC90
Procedure, shortened: as §2

[19] = relative to fangchinoline, Table 2

In the case of `COc1ccc2cc1Oc1ccc(cc1)C[C@H]1c3cc(c(OC)cc3CCN1C)Oc1c(OCC(O)CN3CCCC(C)C3)c(OC)cc3c1[C@H](C2)N(C)CC3` (some centres unmarked) [BS-FC-410], the IC50 [1] is reported as 0.05 µg/mL (≈ 0.0654 µM), the IC90 [1] is reported as 0.63 µg/mL (≈ 0.825 µM) and the IC50 [2] is reported as 0.28 µg/mL (≈ 0.367 µM). For the same molecule, the IC90 [2] was 0.91 µg/mL (≈ 1.19 µM), the IC50 [3] was 0.66 µg/mL (≈ 0.864 µM) and the IC90 [3] was 1.51 µg/mL (≈ 1.98 µM). For the same molecule, the “anti-Hep G2 activity increase over fangchinoline” value [3, 19] was about 3 fold, the IC50 [4] was 0.67 µg/mL (≈ 0.877 µM) and the IC90 [4] was 1.19 µg/mL (≈ 1.56 µM). It also gave an IC50 [5] of 0.49 µg/mL (≈ 0.641 µM), an IC90 [5] of 3.21 µg/mL (≈ 4.2 µM) and an IC50 [6] of 1.71 µg/mL (≈ 2.24 µM). For the same molecule, the IC90 [6] was 6.8 µg/mL (≈ 8.9 µM), the IC50 [7] was 0.44 µg/mL (≈ 0.576 µM) and the IC90 [7] was 0.95 µg/mL (≈ 1.24 µM). For the same molecule, the IC50 [8] was 0.73 µg/mL (≈ 0.956 µM), the IC90 [8] was 2.48 µg/mL (≈ 3.25 µM) and the “anti-Becap37 activity increase over fangchinoline” value [8, 19] was about 3 fold. It also gave an IC50 [9] of 1.33 µg/mL (≈ 1.74 µM), an IC90 [9] of 2.41 µg/mL (≈ 3.15 µM) and an IC50 [10] of 1.1 µg/mL (≈ 1.44 µM). The IC90 [10] was 1.7 µg/mL (≈ 2.23 µM), the IC50 [11] was 2.25 µg/mL (≈ 2.95 µM) and the IC90 [11] was 8 µg/mL (≈ 10.5 µM). The “antitumor activity compared with that of fangchinoline” value [12] was “significantly superior”, the IC50 [13] was under 0.125 µg/mL and the IC90 [13] was 0.25 µg/mL (≈ 0.327 µM). The IC50 [14] was 1.1 µg/mL (≈ 1.44 µM), the IC90 [14] was 2.4 µg/mL (≈ 3.14 µM) and the IC50 [15] was 1.39 µg/mL (≈ 1.82 µM). For the same molecule, the IC90 [15] was 5.59 µg/mL (≈ 7.32 µM), the IC50 [16] was 1.11 µg/mL (≈ 1.45 µM) and the IC90 [16] was 3.77 µg/mL (≈ 4.93 µM). For the same molecule, the “anti-PANC-1 activity increase over fangchinoline” value [16, 19] was about 3 fold, the IC50 [17] was 2.85 µg/mL (≈ 3.73 µM) and the IC90 [17] was 3.89 µg/mL (≈ 5.09 µM). It also gave an IC50 [18] of 0.76 µg/mL (≈ 0.995 µM) and an IC90 [18] of 4.3 µg/mL (≈ 5.63 µM).

`COc1ccc2cc1Oc1ccc(cc1)C[C@H]1c3cc(c(OC)cc3CCN1C)Oc1c(OCC(O)CN3CCSCC3)c(OC)cc3c1[C@H](C2)N(C)CC3` (some centres unmarked) [BS-FC-417] gave an IC50 [1] of 0.19 µg/mL (≈ 0.247 µM), an IC90 [1] of 2.15 µg/mL (≈ 2.8 µM) and an IC50 [2] of 0.99 µg/mL (≈ 1.29 µM). For the same molecule, the IC90 [2] was 2.86 µg/mL (≈ 3.72 µM), the IC50 [3] was 1.8 µg/mL (≈ 2.34 µM) and the IC90 [3] was 5.79 µg/mL (≈ 7.54 µM). The IC50 [4] was 1.49 µg/mL (≈ 1.94 µM), the IC90 [4] was 4.25 µg/mL (≈ 5.53 µM) and the IC50 [5] was 1.49 µg/mL (≈ 1.94 µM). The IC90 [5] was 12.9 µg/mL (≈ 16.8 µM), the IC50 [6] was 3.77 µg/mL (≈ 4.91 µM) and the IC90 [6] was 11.7 µg/mL (≈ 15.2 µM). The IC50 [7] was 1.09 µg/mL (≈ 1.42 µM), the IC90 [7] was 2.27 µg/mL (≈ 2.96 µM) and the IC50 [8] was 2.42 µg/mL (≈ 3.15 µM). For the same molecule, the IC90 [8] was 6.16 µg/mL (≈ 8.02 µM), the IC50 [9] was 1.73 µg/mL (≈ 2.25 µM) and the IC90 [9] was 4.47 µg/mL (≈ 5.82 µM). The IC50 [10] was 2 µg/mL (≈ 2.6 µM), the IC90 [10] was 3.6 µg/mL (≈ 4.69 µM) and the IC50 [11] was 2.36 µg/mL (≈ 3.07 µM). For the same molecule, the IC90 [11] was 6.03 µg/mL (≈ 7.85 µM), the “antitumor activity compared with that of fangchinoline” value [12] was “significantly superior” and the IC50 [13] was 0.02 µg/mL (≈ 0.026 µM). For the same molecule, the IC90 [13] was 0.5 µg/mL (≈ 0.651 µM), the “anti-RPMI8226 activity increase over fangchinoline” value [13, 19] was 2 fold and the IC50 [14] was 1.66 µg/mL (≈ 2.16 µM). The IC90 [14] was 5.24 µg/mL (≈ 6.82 µM), the IC50 [15] was 4.6 µg/mL (≈ 5.99 µM) and the IC90 [15] was 12.9 µg/mL (≈ 16.8 µM). For the same molecule, the IC50 [16] was 5.55 µg/mL (≈ 7.23 µM), the IC90 [16] was 9 µg/mL (≈ 11.7 µM) and the IC50 [17] was 3.68 µg/mL (≈ 4.79 µM). The IC90 [17] was 9.36 µg/mL (≈ 12.2 µM), the IC50 [18] was 1.82 µg/mL (≈ 2.37 µM) and the IC90 [18] was 7.67 µg/mL (≈ 9.99 µM).
